Measurements: patent US20080171766A1, “Novel Method” (SMITHKLINE BEECHAM CORPORATION, priority 2005, published 2008)
Converted amounts (≈) assume the structure as drawn.

Legend:
[1] = test system: S. aureus VISA (vancomycin intermediate Staphylococcus aureus); assay: MIC by broth microdilution, VISA; assay type: cell-based
Description: (§1) Whole-cell antimicrobial activity was determined by broth microdilution. Test compounds were dissolved in DMSO and diluted 1:10 in water to produce a 64 mcg/ml stock solution. Using a 96 well microtitre plate, a Microlab AT Plus 2 (Hamilton Co., Reno, Nev.) serially diluted 50 ul of the stock solution into an appropriate broth medium. Staphylococcal isolates were tested using cation adjusted Mueller Hinton broth. For S. pneumonaie testing, the Mueller Hinton broth was supplemented with 5% lysed horse blood and H. influenzae was tested with Haemophilus Test Medium. After the compounds were diluted, a 50 ul aliquot of the test isolate (˜1×10^6 cfu/ml) prepared in normal saline was added to each well of the microtitre plate. The final test concentrations ranged from 0.016-16 ug/mL. Inoculated plates were incubated at 35 °C in ambient air for 18 to 24 hours. The minimum inhibitory concentration (MIC) was determined as the lowest concentration of compound that inhibited visible growth.

[2] = test system: H. influenzae BLNAR (beta lactamase negative ampicillin resistant); assay: MIC by broth microdilution, H. influenzae BLNAR; assay type: cell-based; conditions: H. influenzae (5 isolates) BLNAR; Compound A n = 4
Description: as §1

[3] = test system: S. aureus Linezolid resistant; assay: MIC by broth microdilution, linezolid resistant S. aureus; assay type: cell-based, Staphylococcus aureus; conditions: S. aureus (3 isolates) Linezolid resistant
Description: as §1

[4] = test system: H. influenzae ClarR (clarithromycin resistant); assay: MIC by broth microdilution, H. influenzae ClarR; assay type: cell-based; conditions: H. influenzae (5 isolates) ClarR; Compound A n = 3
Description: as §1

[5] = test system: S. aureus Mupirocin^r (mupirocin resistant); assay: MIC by broth microdilution, mupirocin resistant S. aureus; assay type: cell-based, Staphylococcus aureus; conditions: S. aureus Mupirocin^r (32 isolates); not all isolates tested against fusidic acid
Description: as §1

[6] = test system: S. aureus MRSA&Mup^r (methicillin resistant & mupirocin resistant Staphylococcus aureus); assay: MIC by broth microdilution, MRSA&Mup^r; assay type: cell-based; conditions: S. aureus MRSA&Mup^r (14 isolates); not all isolates tested against fusidic acid
Description: as §1

[7] = test system: S. aureus Fusidic acid^r (fusidic acid resistant); assay: MIC by broth microdilution, fusidic acid resistant S. aureus; assay type: cell-based, Staphylococcus aureus; conditions: S. aureus Fusidic acid^r (6 isolates)
Description: as §1

[8] = test system: S. aureus MRSA (methicillin resistant Staphylococcus aureus); assay: MIC by broth microdilution, MRSA; assay type: cell-based; conditions: S. aureus MRSA (61 isolates); not all isolates tested against fusidic acid
Description: as §1

[9] = test system: S. aureus Macrolide^r (macrolide resistant); assay: MIC by broth microdilution, macrolide resistant S. aureus; assay type: cell-based, Staphylococcus aureus; conditions: S. aureus Macrolide^r (69 isolates); not all isolates tested against fusidic acid
Description: as §1

[10] = S. aureus (4 isolates) VISA (vanc. MIC 4), second part of table
[11] = S. aureus VISA (6 isolates), first part of table

Row | Compound | MIC Range [1, 10] | MIC Range [2] | MIC Range [3] | MIC Range [4] | MIC Range [5] | MIC Range [6] | MIC Range [7] | MIC Range [1, 11] | MIC Range [8] | MIC Range [9]
1 | CC1(C)S[C@@H]2[C@H](NC(=O)[C@H](N)c3ccc(O)cc3)C(=O)N2[C@H]1C(=O)O [Amoxicillin] | 8 to 32 µg/mL | 4 to 16 µg/mL | >32 µg/mL | – | – | – | – | – | – | –
2 | CC[C@H]1OC(=O)[C@H](C)[C@@H](O[C@H]2C[C@@](C)(OC)[C@@H](O)[C@H](C)O2)[C@H](C)[C@@H](O[C@@H]2O[C@H](C)C[C@H](N(C)C)[C@H]2O)[C@](C)(O)C[C@@H](C)CN(C)[C@H](C)[C@@H](O)[C@]1(C)O [Azithromycin] | – | 1 to 2 µg/mL | 0.5 µg/mL (≈ 0.668 µM) | – | – | – | – | – | – | –
3 | C=C[C@]1(C)C[C@@H](OC(=O)CSC2CC3CCC(C2)N3C)[C@]2(C)C(C)CC[C@]3(CCC(=O)[C@H]32)[C@@H](C)[C@@H]1O (stereo partly drawn) [Compound A, mutilin 14-(exo-8-methyl-8azabicyclo[3.2.1]oct-3-ylsulfanyl)-acetate] | 0.06 to 1 µg/mL | 2 to 4 µg/mL | 1 to 2 µg/mL | 0.12 to 0.25 µg/mL | <0.016 to 0.5 µg/mL | <0.016 to 0.12 µg/mL | <0.016 to 0.03 µg/mL | <0.06 to 1 µg/mL | <0.016 to 0.5 µg/mL | 0.03 to 0.5 µg/mL
4 | CC(=O)O[C@H]1C[C@@]2(C)[C@@H](C[C@@H](O)[C@H]3[C@@]4(C)CC[C@@H](O)[C@@H](C)[C@@H]4CC[C@@]32C)/C1=C(\CCC=C(C)C)C(=O)O [Fusidic acid] | – | – | – | – | – | 0.12 to 0.5 µg/mL | >16 µg/mL | – | 0.12 to 1 µg/mL | 0.12 to 1 µg/mL
5 | C/C(=C\C(=O)OCCCCCCCCC(=O)O)C[C@@H]1OC[C@H](C[C@@H]2O[C@H]2[C@@H](C)[C@H](C)O)[C@@H](O)[C@H]1O [Mupirocin] | – | – | – | – | – | – | – | <1 µg/mL | – | –

The next lines start with results.

Row | MIC Range [1, 10] | MIC Range [2] | MIC Range [3] | MIC Range [4] | Compound | MIC Range [5] | MIC Range [6] | MIC Range [7] | MIC Range [1, 11] | MIC Range [8] | MIC Range [9]
6 | >16 µg/mL | 8 to 16 µg/mL | >16 µg/mL | 0.5 to 1 µg/mL | CO/N=C(\C(=O)N[C@@H]1C(=O)N2C(C(=O)O)=C(COC(N)=O)CS[C@H]12)c1ccco1 [Cefuroxime] | – | – | – | – | – | –
7 | 8 to 64 µg/mL | <0.016 µg/mL | 16 µg/mL (≈ 44.3 µM) | <0.016 µg/mL | C[C@H]1COc2c(N3CCN(C)CC3)c(F)cc3c(=O)c(C(=O)O)cn1c23 [Levofloxacin] | – | – | – | – | – | –
8 | – | 1 µg/mL (≈ 1.23 µM) | 0.03 to 0.06 µg/mL | – | CC[C@H]1OC(=O)[C@H](C)C(=O)[C@H](C)[C@@H](O[C@@H]2O[C@H](C)C[C@H](N(C)C)[C@H]2O)[C@](C)(OC)C[C@@H](C)C(=O)[C@H](C)[C@H]2N(CCCCn3cnc(-c4cccnc4)c3)C(=O)O[C@]12C [Telithromycin] | – | – | – | – | – | –
